Results reported in US12600740B2, “Fluorinated N-acetyl glucosamine analogs and xylose derivatives” (UTI Limited Partnership, priority 2018, dated 2026).

Assays:
[1] = tested on: CSPG production by astrocytes; test: Western blot of astrocyte conditioned medium, MAB2030 (chondroitin sulfate GAG stubs); type: cell-based, mouse; conditions: for Reduce CSPG production: astrocytes, significance class; for effect on CSPG production by astrocytes: astrocyte conditioned media, 50 μM, 48 hours
Source text: Astrocytes are major producers of CSPGs following injury in the CNS [Jones, L. L., Margolis, R. U. & Tuszynski, M. H. The chondroitin sulfate proteoglycans neurocan, brevican, phosphacan, and versican are differentially regulated following spinal cord injury. Experimental Neurology 182, 399-411 (2003); Tang, X., Davies, J. E. & Davies, S. J. Changes in distribution, cell associations, and protein expression levels of NG2, neurocan, phosphacan, brevican, versican V2, and tenascin-C during acute to chronic maturation of spinal cord scar tissue. […] The Journal of neuroscience: the official journal of the Society for Neuroscience 20, 2427-2438 (2000); McKeon, R. J., Jurynec, M. J. & Buck, C. R. The chondroitin sulfate proteoglycans neurocan and phosphacan are expressed by reactive astrocytes in the chronic CNS glial scar. The Journal of neuroscience: the official journal of the Society for Neuroscience 19, 10778-10788 (1999); Haas, C. A., Rauch, U., Thon, N., Merten, T. & Deller, T. Entorhinal cortex lesion in adult rats induces the expression of the neuronal chondroitin sulfate proteoglycan neurocan in reactive astrocytes. The Journal of neuroscience: the official journal of the Society for Neuroscience 19, 9953-9963 (1999)] and they may help drive progression of disability in a model of progressive MS [Mayo, L. et al. Regulation of astrocyte activation by glycolipids drives chronic CNS inflammation. Nature medicine 20, 1147-1156 (2014)]. Therefore astrocytes were used as model cells to determine the ability of the sugar analogs to reduce synthesis of CSPGs. Since CSPGs are exported out of cells, the conditioned media from analog-treated astrocytes were probed by Western blots (FIG. 4). We used antibodies to both the stubs of chondroitin sulfate GAGs attached to the core protein (MAB2030) and to intact 4-sulfated chondroitin sulfate sidechains (2H6) (FIG. 4a). Particularly, we used the 2H6 antibody to label intact 4-sulfated chondroitin sulfate sidechains, and the MAB2030 antibody to detect the stubs of chondroitin sulfate GAGs attached to the core protein. […] 1998, 160 (8), 3812-3819. Poole Poole C. A.; Glant T. T.; Schofield J. R.; Chondrons from articular cartilage. (IV). Immunolocalization of proteoglycan epitopes in isolated canine tibial chondrons. J. Histochem. Cytochem. 1991, 39 (9), 1175-1187].
Astrocytes were plated in uncoated 6-well plates (3 replicate wells per treatment) at 1×10^6 cells/well in mixed glial media, and incubated at 5% CO2 and 37° C. Astrocytes were treated with compounds at 50 μM in AIM-V media for 48 hours. Media was pooled from 3 replicate wells in 15 ml 100K cutoff centricon tubes (EMD Millipore, #UFC905008), which were spun on an ultracentrifuge at 5000× g for 2 cycles of 10 minutes each. When harvested, the cell lysate was kept on ice for 5 minutes with 250 μL of RIPA buffer (ThermoFisher Scientific #89900) containing proteinase inhibitor, and then collected and centrifuged at 14000 g for 5 minutes. Total protein was quantified using a Bradford assay. Conditioned media that were to be probed for chondroitin 4-sulfate GAGs (Millipore, #MAB2030) were first digested with 0.2 U/ml chondroitinase ABC for overnight at 37° C. to remove chondroitin sulfate sidechains. Blots that were to be probed with CSA (2H6, Cosmo) or CS56 (Abcam #ab11570) were not exposed to chondroitinase ABC. Samples were heat denatured with NuPAGE® LDS Sample buffer at 70° C. for 10 minutes and then loaded into 3-8% tris-acetate pre-cast gels (ThermoFisher, #EA0478BOX). The gels were electrophoresed at a constant 150 V for 90 minutes and transferred to a […] polyvinylidene fluoride membrane at a constant 250 mA for 60 minutes. The membranes were blocked for one hour with 10% skim milk in Tris-buffered saline (TBS; 0.9% NaCl, 10 mM Tris-HCl, pH 7.5) containing 0.5% Tween 20 (TBS-T). Primary antibodies were added in 3% skim milk and incubated overnight at 4° C. […]

[2] = tested on: splenocytes; test: Splenocyte thymidine proliferation assay (anti-CD3/anti-CD28); type: cell-based, mouse; conditions: for Reduce T cell proliferation: activated splenocytes, significance class
Protocol: It was assessed whether the glucosamine analogs have immunomodulatory properties on splenocytes isolated in culture. T cells within the splenocyte pool were polyclonally activated with anti-CD3 and anti-CD28 antibodies in the presence of compounds for 48 hours, and proliferation was determined by the uptake of tritiated thymidine and expressed as counts per minute. The relative change in proliferation of treated versus control splenocytes was taken in order to rank the compounds across multiple independent experiments (FIG. 8a).
The spleens were isolated from 8-10-week-old female C57BL/6 mice and homogenized. The cells were isolated by Ficoll gradient and spun for 30 min at 1,800 r.p.m. The cell suspension was removed and the cells were washed once with PBS. The cell pellet was subsequently re-suspended in Roswell Park Memorial Institute media containing 10% fetal bovine serum, 1% penicillin/streptomycin, 1% sodium pyruvate and 1% L-glutamine. Trypan blue exclusion was used to count live cells, and the cells were plated at 2.5×10^5 cells per well in a round-bottom 96-well plate and activated with 1,000 ng/ml plate-bound anti-CD3 and 1,000 ng/ml anti-CD28 suspended in media to preferentially activate T lymphocytes. Compounds were added at final concentrations of 25 μM. The cells were kept at 37° C. and 5% CO2 for 30 h, after which 10 μl/well (1 μCi per well) of 3H-thymidine was added for 18 h. The cells containing thymidine were harvested onto filter mats using a cell harvester and mats were allowed to dry for 24 h. The results were read by liquid scintillation counts.

| Structure (SMILES) | Reduce CSPG production [1] | Reduce T cell proliferation [2] | effect on CSPG production by astrocytes [1] | splenocyte proliferation ([2]; 25 μM, 48 hours) |
| --- | --- | --- | --- | --- |
| CC(=O)N[C@H]1C(OC(C)=O)O[C@H](COC(C)=O)[C@H](Cl)[C@@H]1OC(C)=O (stereo partly drawn) [Compound 15, 2-Acetamido-1,3,6-tri-O-acetyl-2,4-dideoxy-4-chloro-α/β-D-galactopyranoside] | n.s. | * (*p < 0.05) | – | – |
| CC(=O)N[C@H]1C(O)O[C@H](CO)[C@@H](O)[C@@H]1O (stereo partly drawn) [GlcNAc, N-Acetyl-D-glucosamine, reference compound] | – | – | did not affect CSPG production | – |
| CC(=O)O[C@@H]1OC[C@@H](F)[C@H](OC(C)=O)[C@H]1OC(C)=O [Compound 28, 1,2,3-tri-O-acetyl-4-deoxy-4-fluoro-β-D-xylopyranose] | – | – | did not reduce CSPG production | – |
| CC(=O)O[C@@H]1[C@@H](OC(C)=O)[C@H](OCCS(=O)(=O)[O-])OC[C@H]1OC(C)=O.[Na+] [Compound 22, 2-Sulfoethyl 2,3,4-tri-O-acetyl-β-D-xylopyranoside, sodium salt] | – | – | CSPG production was not impacted | – |
| CC(=O)OC[C@H]1OC(OC(C)=O)[C@H](NC(=O)C(F)(F)F)[C@@H](OC(C)=O)[C@@H]1F (stereo partly drawn) [Compound 9, 1,3,6-Tri-O-acetyl-2,4-dideoxy-4-fluoro-2-trifluroacetamido-α/β-D-glucopyranose] | n.s. | *** (***p < 0.001) | did not lower CSPG production in astrocytes | reduced splenocyte proliferation |
| O[C@@H]1[C@@H](O)[C@H](OCc2ccccc2)OC[C@H]1O [Compound 19, reference compound] | n.s. | n.s. | CSPG production was not impacted | – |
| CC(=O)O[C@@H]1[C@@H](OC(C)=O)[C@H](OCCOCCOCCOCCO)OC[C@H]1OC(C)=O [Compound 21, 2-(2-(2-(2-Hydroxyethoxy)ethoxy)ethoxy)ethyl 2,3,4-tri-O-acetyl-β-D-xylopyranoside] | – | – | effective at reducing CSPGs | – |
| COC[C@H]1OC(OC(C)=O)[C@H](NC(C)=O)[C@@H](OC)[C@@H]1F (stereo partly drawn) [Compound 5, 2-Acetamido-1-O-acetyl-2,4-dideoxy-4-fluoro-3,6-di-O-methyl-α/β-D-glucopyranose] | n.s. | n.s. | did not affect CSPG synthesis | – |
| CC(=O)O[C@@H]1[C@@H](OC(C)=O)[C@@H](OCCCCCCS(=O)(=O)[O-])OC[C@H]1OC(C)=O.[Na+] [Compound 24, 6-Sulfohexyl 2,3,4-tri-O-acetyl-α-D-xylopyranoside, sodium salt] | – | – | did not act as an inhibitor | – |
| CC(=O)O[C@@H]1[C@@H](OC(C)=O)[C@H](OCCO)OC[C@H]1OC(C)=O [Compound 20, 2-Hydroxyethyl 2,3,4-tri-O-acetyl-β-D-xylopyranoside] | – | – | CSPG production was not impacted | – |
| CO[C@H]1[C@H](F)[C@@H](COC(C)=O)OC(OC(C)=O)[C@@H]1NC(C)=O (stereo partly drawn) [Compound 6, 2-Acetamido-1,6-di-O-acetyl-2,4-dideoxy-4-fluoro-3-O-methyl-α/β-D-glucopyranose] | n.s. | n.s. | did not affect CSPG synthesis | – |
